Data on 3 compounds can be found in patent US20240209028A1, “CNP COMPOUNDS” (priority 2022, published 2024).

Each structure is given as a SMILES string. Starred links: 1 amine or outer side, 2 acyl side, 3 side chain; linkers in the order of their positions; H or OH if unused. Positions of bridges follow the written chain, without caps; N, C: chain ends. Residues, ends and D or L forms follow the SMILES beside them. *: point of attachment. C18 diacid = O=C(O)CCCCCCCCCCCCCCCCC(=O)*; γGlu = O=C(O)[C@H](CCC(=O)[*:2])N[*:1]; AEEA = NCCOCCOCC(=O)O

Data set [1] in a line: PK after i.v. and s.c. administration to domestic LYD pig. The note with it: female, in vivo. As to the method:
(§1) The purpose of this study was to investigate pharmacokinetic and pharmacodynamic properties after intravenous (i.v.) and subcutaneous (s.c.) administration to Gottingen Minipig and domestic LYD pig, and to estimate bioavailability after s.c. dosing. Quantitative plasma analysis of CNP and cGMP levels were performed as described in
(§2) Animals and dosing: The pharmacokinetic and pharmacodynamic studies in Gottingen Minipig or domestic LYD pig were conducted at CRO Minerva Imaging or Novo Nordisk A/S, respectively. CNP compounds were dosed to normal female 1) Gottingen minipigs 6-12 months of age with an average weight of 22 kg or 2) domestic LYD pigs 4-5 months of age with and average weight of 80 kg. At least one week prior to dosing, permanent central venous catheters were implanted for blood sampling and intravenous (i.v.) dosing. For subcutaneous (s.c.) dosing, the pigs were ultrasound scanned and the optimal injection area laterally on the neck marked by a permanent tattoo. An insulin pen (NovoPen Echo or NovoPen 4) and insulin needle (NovoFine 32G/4 mm or NovoTwist 32G/5 mm) were used for accurate deposition of the CNP formulations in the subcutaneous fat tissue with the needle perpendicular to the skin.
(§3) CNP compounds were formulated according to the principles in General Methods of Preparation—Method G and were either A) 8 mM sodium phosphate, 250 mM glycerol, pH 6.5, B) 5 mM sodium acetate, 250 mM glycerol, pH 4.0, C) 5 mM sodium acetate, 240 mM propylene glycol, pH=4.0, D) 8 mM sodium phosphate, 250 mM glycerol, pH 7.5 or E) 20 mM sodium phosphate, 223 mM propylene glycol, pH 6.0.
(§4) Intravenously, the CNP compounds were dosed at 30-60 nmol/kg to Minipig and 15-43 nmol/kg to domestic pig using formulations A-E. Subcutaneously, the CNP compounds were dosed at 55-62 nmol/kg to Minipig and 20-30 nmol/kg to domestic pig using formulations A-D.
(§5) Sampling: Blood samples of approximately 1 mL were collected pre dose and up to 14 days post dose into EDTA-coated tubes (8 mM) for cGMP and CNP compound analysis by LC-MS. In few instances, cGMP was only analysed up to 48 hours post dose after intravenous dosing in domestic LYD pig. The blood samples were kept on wet ice for maximum 30 minutes until centrifugation for 10 minutes at 4° C. and minimum 1500G, and the plasma samples were stored at −20° C. until analysis.
(§6) Plasma concentration-time profiles were analyzed by non-compartmental PK analysis using Phoenix WinNonlin 8.1, Pharsight Inc., Mountain View, CA, USA. Calculation of the area under the plasma concentration-time curve (AUC) was based on the “linear up log down” method, and uniform weighting was used for estimation of the terminal rate constant (λz). S.c. bioavailability (F) was calculated as the dose-normalized AUC (AUC/dose) after s.c. administration divided by the AUC/dose after i.v. administration. […]

The nature of data set [2]: PK after i.v. and s.c. administration to Göttingen minipig. The note with it: female, Göttingen, minipig, in vivo. As to the method: as §1, §2, §3, §4, §5, §6
Data set [3] in a line: Local tolerance of CNP compounds in rats (s.c. injection, histopathology). It counts as in vivo, Sprague Dawley rat. The note with it: rat, s.c. 350 μl, about 1000 nmol/ml, 5 days post injection. As to the method: The purpose of this study was to evaluate the local tissue reaction to subcutaneous injection of CNP compounds in rats.
Procedure: The CNP compounds were formulated according to the principles described in General Methods of Preparation-Method G. Each Sprague Dawley rat (male, 10-11 weeks of age at arrival, Janvier, France) was dosed s.c. with 250 or 350 uL of the same compound (formulation concentration of 1000 nmol/mL) 120 h prior to tissue collection resulting in a total of two injections for each animal (Table 15). Injection site (flank or neck) was alternated across animals within each group and time point.
Animals had access to tap water and food (Altromin 1324) ad libitum. Group size was n=3 for vehicles and positive control, and n=4 for test compounds. Vehicles and compounds were formulated in either 5 mM sodium acetate, 250 mM glycerol, pH 4.0 or 8 mM sodium phosphate, 250 mM glycerol, pH 7.4 as shown in Table 16.
The animals were anesthetized with isoflurane. Via an electric shaving machine, a squared area of fur (2 cm×2 cm) was removed either from the rats' neck or flank area). For dosing, a new injection needle (25G canula, 1 ml syringe) was placed in the middle of the square border closest to the animal's head and the needle was inserted into the skin from the border towards the center of the square. […] On the day of tissue collection, the rats were deeply anaesthetized with isoflurane and euthanized by exsanguination. The injection sites were inspected and scored with regards to pathological lesions. The injection sites were evaluated, and any changes were noted (location, colour, shape and size), and sampled for histology preparation.
The injection sites were removed and fixed in 4% phosphate buffered neutral formaldehyde in sealed plastic containers.
Each injection site was subsequently cut into three sections 0.8 cm, 1.0 cm and 1.2 cm from the square border where the injection needle was placed, and, respectively, these sections represented the injection sites and the adjacent tissue. The tissue was processed, embedded in paraffin and cut in 2-4 μm thin sections, stained with the haematoxylin and eosin (H&E), and evaluated microscopically with a light microscope. Histopathological changes were graded on a 5-level scale (Minimal (Min), Mild (Mil), Moderate (Mod), Marked (Mar) and Severe (Sev)).

Consider `CC[C@H](C)[C@@H]1NC(=O)[C@H](CCCNC(=N)N)NC(=O)[C@H](CCC(=O)O)NC(=O)[C@H](CC(C)C)NC(=O)[C@H](CCCCN)NC(=O)[C@H](CC(C)C)NC(=O)CNC(=O)[C@H](Cc2ccccc2)NC(=O)[C@@H](NC(=O)CNC(=O)[C@H](CCCCN)NC(=O)[C@H](CO)NC(=O)[C@H](CC(C)C)NC(=O)CNC(=O)[C@H](CCCCN)NC(=O)[C@H](CCCCN)NC(=O)[C@H](CCC(N)=O)NC(=O)[C@H](C)NC(=O)CNC(=O)[C@H](CCCCN)NC(=O)[C@H](Cc2ccc(O)cc2)NC(=O)[C@H](CCCCN)NC(=O)[C@H](CCCNC(=N)N)NC(=O)[C@H](C)NC(=O)COCCOCCNC(=O)COCCOCCNC(=O)CC[C@H](NC(=O)CCCCCCCCCCCCCCCCC(=O)O)C(=O)O)CSSC[C@@H](C(=O)O)NC(=O)CNC(=O)[C@H](CC(C)C)NC(=O)CNC(=O)[C@H](CO)NC(=O)[C@H](CC(C)C)NC(=O)[C@H](CO)NC(=O)CNC1=O` [Compound 0776] ({C18 diacid-γGlu-AEEA-AEEA}-ARKYKGAQKKGLSKGCFGLKLERIGSLSGLGC-OH; disulfide 16-32), for which the bioavailability in data set [1] (LYD (domestic), pig, sc) was 7%; in data set [2] (sc) it was 13%. The clearance in data set [1] (LYD, pig, iv) is 1.34 mL/h/kg; in data set [2] (iv) it was 0.841 mL/h/kg. Also, the half-life in data set [1] (LYD, pig, iv) is 29 h; in data set [1] (LYD, pig, sc), 41 h; in data set [2] (iv) it was 60 h; in data set [2] (sc), 56 h.
As for `CC[C@H](C)[C@@H]1NC(=O)[C@H](CCCNC(=N)N)NC(=O)[C@H](CC(=O)O)NC(=O)[C@H](CC(C)C)NC(=O)[C@@H]2CCCN2C(=O)[C@H](CC(C)C)NC(=O)CNC(=O)[C@H](Cc2ccccc2)NC(=O)[C@@H](NC(=O)CNC(=O)[C@H](CCCCN)NC(=O)[C@H](CO)NC(=O)[C@@H](NC(=O)CNC(=O)[C@@H](NC(=O)[C@H](Cc2c[nH]cn2)NC(=O)[C@H](CCC(N)=O)NC(=O)[C@H](C)NC(=O)CNC(=O)[C@H](Cc2c[nH]cn2)NC(=O)[C@H](Cc2ccc(O)cc2)NC(=O)[C@H](CCCCN)NC(=O)[C@H](CCCNC(=N)N)NC(=O)[C@H](C)NC(=O)COCCOCCNC(=O)COCCOCCNC(=O)CC[C@H](NC(=O)CC[C@H](NC(=O)CC[C@H](NC(=O)CCCCCCCCCCCCCCCCC(=O)O)C(=O)O)C(=O)O)C(=O)O)[C@@H](C)O)C(C)C)CSSC[C@@H](C(=O)O)NC(=O)CNC(=O)[C@H](CC(C)C)NC(=O)CNC(=O)[C@H](CO)NC(=O)[C@H](CC(C)C)NC(=O)[C@H](CO)NC(=O)CNC1=O` [Compound 1420] ({C18 diacid-γGlu-γGlu-γGlu-AEEA-AEEA}-ARKYHGAQHTGVSKGCFGLPLDRIGSLSGLGC-OH; disulfide 16-32), in data set [3], the “Number of injections by severity of necrosis: Mil.” value came to 1 and the “Number of injections by severity of necrosis: NAD (No Abnormalities Detected)” value worked out at 3.
In the case of `CC[C@H](C)[C@@H]1NC(=O)[C@H](CCCNC(=N)N)NC(=O)[C@H](CC(=O)O)NC(=O)[C@H](CC(C)C)NC(=O)[C@@H]2CCCN2C(=O)[C@H](CC(C)C)NC(=O)CNC(=O)[C@H](Cc2ccccc2)NC(=O)[C@@H](NC(=O)CNC(=O)[C@H](CO)NC(=O)[C@H](CO)NC(=O)[C@H](CC(C)C)NC(=O)CNC(=O)[C@H](CCCCN)NC(=O)[C@H](CCCCN)NC(=O)[C@H](CCC(N)=O)NC(=O)[C@H](C)NC(=O)CNC(=O)[C@H](CCC(=O)O)NC(=O)[C@H](Cc2ccc(O)cc2)NC(=O)COCCOCCNC(=O)COCCOCCNC(=O)CC[C@H](NC(=O)CCCCCCCCCCCCCCCCC(=O)O)C(=O)O)CSSC[C@@H](C(=O)O)NC(=O)CNC(=O)[C@H](CC(C)C)NC(=O)CNC(=O)[C@H](CO)NC(=O)[C@H](CC(C)C)NC(=O)[C@H](CO)NC(=O)CNC1=O` [Compound 1227] ({C18 diacid-γGlu-AEEA-AEEA}-YEGAQKKGLSSGCFGLPLDRIGSLSGLGC-OH; disulfide 13-29), the clearance in data set [1] (iv, Domestic LYD pig, i.v., read-out: CL (ml/hr/kg), Intravenous PK (converted)) is 5.54 mL/h/kg. The half-life in data set [1] (iv, Domestic LYD pig, i.v., read-out: T½, iv (converted)) is 11 h; in data set [1] (sc, Domestic LYD pig, s.c., read-out: T½, sc (converted)), 9 h. Further, the bioavailability in data set [1] (sc, Domestic LYD pig, s.c. bioavailability, read-out: F (%), Subcutaneous PK) is 55%.
